Source: patent US9725720B2, “Low molecular weight cationic lipids for oligonucleotide delivery” (SIRNA THERAPEUTICS, INC., priority 2010, dated 2017)

Columns and labels:
[1] = Determination of cationic lipid levels in rat liver (LC/MS-MS); type: in vivo; conditions: rats dosed with RDV containing the compound; compared with RDV containing DLinKC2DMA (Compound 20) or MC3 (Compound 21); FIG. 3
Method: Liver tissue was weighed into 20-ml vials and homogenized in 9 v/w of water using a GenoGrinder 2000 (OPS Diagnostics, 1600 strokes/min, 5 min). A 50 μL aliquot, of each tissue homogenate was mixed with 300 μL of extraction/protein precipitating solvent (50/50 acetonitrile/methanol containing 500 nM internal standard) and the plate was centrifuged to sediment precipitated protein. A volume of 200 μL of each supernatant was then transferred to separate wells of a 96-well plate and 10 μl samples were directly analyzed by LC/MS-MS.
Standards were prepared by spiking known amounts of a methanol stock solution of compound into untreated rat liver homogenate (9 vol water/weight liver). Aliquots (50 μL) each standard/liver homogenate was mixed with 300 μL of extraction/protein precipitating solvent (50/50 acetonitrile/methanol containing 500 nM internal standard) and the plate was centrifuged to sediment precipitated protein. A volume of 200 μL of each supernatant was transferred to separate wells of a 96-well plate and 10 μl of each standard was directly analyzed by LC/MS-MS.
Absolute quantification versus standards prepared and extracted from liver homogenate was performed using an Aria LX-2 HPLC system (Thermo Scientific) coupled to an API 4000 triple quadrupole mass spectrometer (Applied Biosystems). […]

[2] = test system: mRNA transcript for the firefly (Photinus pyralis) luciferase gene; assay: Mouse in vivo evaluation of efficacy (luciferase siRNA LNP, LSL-Luc transgenic mice, IVIS imaging); conditions: RDV containing the compound + Luc siRNA, tail vein, 0.1 to 0.5 mg/kg siRNA, 48 hours post dose; compared with RDV containing octyl-CLinDMA (OCD); FIG. 1
Method: LNPs utilizing Compounds 1-12, in the nominal compositions described immediately above, were evaluated for in vivo efficacy. The siRNA targets the mRNA transcript for the firefly (Photinus pyralis) luciferase gene (Accession #M15077). […] The in vivo luciferase model employs a transgenic mouse in which the firefly luciferase coding sequence is present in all cells. ROSA26-LoxP-Stop-LoxP-Luc (LSL-Luc) transgenic mice licensed from the Dana Farber Cancer Institute are Induced to express the Luciferase gene by first removing the LSL sequence with a recombinant Ad-Cre virus (Vector Biolabs). Due to the organotropic nature of the virus, expression is limited to the liver when delivered via tail vein injection. Luciferase expression levels in liver are quantitated by measuring light output, using an IVIS imager (Xenogen) following administration of the luciferin substrate (Caliper Life Sciences). Pre-dose luminescence levels are measured prior to administration of the RDVs. Luciferin in PBS (15 mg/mL) is intraperitoneally (IP) injected in a volume of 150 μL. After a four minute incubation period mice are anesthetized with isoflurane and placed in the IVIS imager. The RDVs (containing siRNA) in PBS vehicle were tail vein injected n a volume of 0.2 mL. […] In vivo efficacy results are expressed as % inhibition of luminescence relative to pre-dose luminescence levels. […]

[3] = Rat in vivo toxicity: survival after LNP dosing; conditions: for rats that failed to survive 48 hours: 3 mg/kg

Row | Compound | cationic lipid liver levels [1] | in vivo efficacy (% inhibition of luminescence relative to pre-dose luminescence levels) [2] | rats that survived at 48 hours post dose ([3]; female, Sprague-Dawley (Crl:CD(SD)), rat, in vivo, 48 h) | rats that failed to survive 48 hours [3]
1 | CCCCC/C=C\C/C=C\CCCCCCCCOC[C@H](CCCCCCCCC)N(C)C [Compound 1, (2S)—N,N-dimethyl-1-[(9Z,12Z)-octadeca-9,12-dien-1-yloxy]undecan-2-amine] | lower | Greater efficacy | 1 out of 4 | 
2 | CCCCC/C=C\C/C=C\CCCCCCCCC1(CCCCCCCC/C=C\C/C=C\CCCCC)OCC(CCN(C)C)O1 (centres unmarked) [Compound 20, DLinKC2DMA] |  |  |  | 3 out of 4
3 | CCCCC/C=C\C/C=C\CCCCCCCCC(CCCCCCCC/C=C\C/C=C\CCCCC)OC(=O)CCCN(C)C [Compound 21, MC3] |  |  |  | 2 out of 4
